In article PMC2376372, “3-Bromophenyl 6-acetoxymethyl-2-oxo-2H-1-benzopyran-3-carboxylate inhibits cancer cell invasion in vitro and tumour growth in vivo” (British Journal of Cancer, 2003):

What was measured:
HT1080 cells = experiment: Tumorigenicity of HT1080 cells injected s.c. with matrigel in nude mice; type: in vivo; details: 30 mg kg^−1 i.p. three times per week; for effect on tumour growth (tumour volume), HT1080: ANOVA; for time after cell inoculation to reach a tumour incidence of 50%: tumours higher than 80 mm^3
Procedure: Matrigel (basement membrane proteins) was extracted from the mouse Engelbreth–Holm–Swarm (EHS) tumour as previously described ([Noël et al, 1991]). Tumoral cells were detached by trypsinisation, harvested by centrifugation, resuspended in 0.25 ml of serum-free medium and mixed with an equal volume of cold matrigel (10 mg ml^−1). The suspension (1 × 10^6 cells injection site^−1) was injected subcutaneously (s.c.) on both body flanks of 6–8-week-old female athymic nude mice (n=6; nu/nu Swiss mice from Iffa credo, L'Arbresle, France). The coumarin derivatives in PBS were injected intraperitoneally (30 mg kg^−1) three times per week during the whole assay.
The tumorigenicity defines the capacity of cells to induce tumour formation. The larger (a) and smaller (b) diameters of the apparent tumour were measured and served for tumour volume calculation according to a × b^2 × 0.4 ([Attia and Weiss, 1966]). Injected mice were examined weekly. Tumours presenting a volume higher than 80 mm^3 and which maintained a progressive growth were taken into account ([Noël et al, 1992]). Results are expressed as the mean (±s.e.m.) of the tumour volumes.

MMP-2 and MMP-9 = experiment: Gelatin zymography of HT1080 conditioned medium; type: biochemical, human; details: 1–100 μM in HT1080 conditioned medium
Procedure: The culture medium of human fibrosarcoma HT1080 cells (DMEM) was removed and concentrated 20-fold in a Vivaspin 6 ml concentrator. It was incubated for 30 min at ambient temperature in nonreducing sample buffer and run under Laemmli conditions ([Laemmli, 1970]) by loading a volume of 25 μl onto 7.5% polyacrylamide gels containing 0.1% sodium dodecyl sulphate (SDS), 2 mg ml^−1 casein and 0.16 μM human plasminogen. Following electrophoresis, gels were incubated for 1 h in 2.5% (v v^−1) Triton X-100 for removal of SDS and then for 1 h at 37°C in 50 mM Tris-HCl, 0.1 M NaCl, pH 7.6. Plasminogen activator (PA) activity was visualised as clear bands of lysis upon staining with 0.1% Coomassie blue R250. Purified human high-molecular-weight two-chain urokinase plasminogen activator (HMW-uPA) and low-molecular-weight urokinase plasminogen activator (LMW-uPA) were run in each gel as positive controls. An analogous protocol was followed to detect enzymatic activities towards MMP-2 and MMP-9 except that the 7% SDS–PAGE contained 1 mg ml^−1 bovine gelatin. The gels were incubated at 37°C for about 18 h in 5 mM Tris, pH 7.6 containing 0.2 M NaCl, 5 mM CaCl2 and 0.02 (w v^−1) Brij35. Protein staining was performed during 1 h with a 0.25% solution of Coomassie brillant blue R250 in 50% methanol and 7% acetic acid and destaining in a solution of 20% methanol and […]. […]

[1] = test system: HT1080 fibrosarcoma cells; experiment: Chemotaxis assay, uncoated Transwell inserts; type: cell-based, human; details: Homo sapiens, HT-1080, 4 h, uncoated filters
Procedure: (§1) HT1080 cells exponentially growing in T-75 flasks (Nunc, Costar, Netherlands) were collected by trypsin–ethylenediaminetetraacetic acid treatment, washed with serum-containing medium and allowed to recover from trypsinisation for at least 30 min at 37°C. Cells were then washed twice in serum-free DMEM and diluted in the same medium supplemented with 0.1% bovine serum albumin (BSA, fraction V, Sigma, USA) to a cell density of 6 × 10^5 cells ml^−1.
(§2) The influence of coumarin derivatives (0.1, 1 and 10 μM) on HT1080 cell invasion and migration was assayed using Transwell cell culture inserts (Costar) and compared to the reference compound GI 129471 (1 μM), an MMP inhibitor ([Wheeler et al, 1998]).
(§3) For chemoinvasion assays, type IV collagen-coated membranes (see above) were used, whereas uncoated membranes were employed for chemotaxis assays. Lower wells of chambers were filled with DMEM supplemented with 20% FCS and 1% BSA (fraction V, ICN) as chemoattractant, in the presence or absence of coumarin derivative (final concentration 0.1, 1 and 10 μM) or GI 129471 (final concentration 1 μM). Cells (6 × 10^4) suspended in DMEM supplemented with 0.1% BSA (fraction V, ICN) were seeded in the upper wells. Chambers were subsequently incubated for 48 and 4 h for chemoinvasion and chemotaxis assays, respectively, in a humid atmosphere at 37°C (in order to maintain a chemotactic gradient, media from both lower and upper wells were renewed after 24 h). After incubation, filters were removed from the chambers, fixed in 4% paraformaldehyde for 15 min (4°C), permeabilised for 10 min in methanol (−20°C) and stained with Giemsa (4%) for 15 min. The upper surface of the filters was scrapped with a cotton swab and cells having reached the lower surface of the filters were visually counted using a light microscope (Vanox AH3, Olympus, Hamburg, Germany) at 20-fold magnification. Each assay was performed in triplicate. Results were expressed as percentages (±s.d.) of the migration of control cells.

[2] = test system: HT1080 fibrosarcoma cells; experiment: Chemoinvasion assay, type IV collagen-coated Transwell inserts (Boyden chamber); type: cell-based, human; details: Homo sapiens, HT-1080, 48 h, type IV collagen-coated filters, read-out: inhibition of HT1080 cell invasion (chemoinvasion)
Procedure: Plates (24-well) (Falcon, Becton-Dickinson, USA) and 6.5 mm polycarbonate filters (8 μm pore size) of Transwell cell culture chamber inserts (Costar, Netherlands) were coated with 100 μl of type IV collagen purified from human placenta diluted at 200 μg ml^−1 in phosphate-buffered saline (PBS). Coats were left to air-dry overnight in a laminar flow hood under UV light. Uniformity of the coating was assessed by Coomassie blue staining. Before use, coated plates and inserts were washed twice with water and incubated for at least 1 h in serum-free DMEM at 37°C ([Maquoi et al, 1999]).
as §1, §2, §3

| SMILES | effect on tumour growth (tumour volume), HT1080 (HT1080 cells) | effect on tumour incidence, HT1080 (HT1080 cells; log Rank test, P<0.004) | time after cell inoculation to reach a tumour incidence of 50% (HT1080 cells) [days] | effect on gelatinolytic activities of conditioned culture medium (gelatin zymography) (MMP-2 and MMP-9) | inhibition at 1 µM [1] [%] | inhibition at 1 µM [2] [%] | inhibition at 10 µM [2] [%] | inhibition at 0.1 µM ([1]; 0.1 μM) [%] | inhibition at 10 µM ([1]; 10 μM) [%] |
| --- | --- | --- | --- | --- | --- | --- | --- | --- | --- |
| CC(=O)OCc1ccc2oc(=O)c(C(=O)Oc3cccc(Br)c3)cc2c1 [compound 7, 3-bromophenyl 6-acetoxy-methyl-2-oxo-2H-1-benzopyran-3-carboxylate] | significantly reduced the tumour growth | reduce both the incidence | 48 | did not abrogate | ~30 | 80 | ~90 | – | – |
| CC(=O)OCc1ccc2oc(=O)c(C(=O)Oc3cccc(Cl)c3)cc2c1 [compound 4, 3-chlorophenyl 6-acetoxymethyl-2-oxo-2H-1-benzopyran-3-carboxylate] | did not significantly affect tumour growth | – | 26 | did not abrogate | 50 | 50 | 90 | 20 | 80 |
